We go through 17 molecules from patent publication US8975263B2, “Phenylxanthene derivatives” (Daiichi Sankyo Company, Limited, priority 2013, dated 2015).

One test relates to C57BL/6J mice. Kind of test: Oral glucose tolerance test. The class given is in vivo. The note with it: male C57BL/6J mice, fasted overnight; oral gavage 10 mg/kg; solvent 0.5% MC; glucose 3 g/kg orally 30 minutes after compound; area under the curve of blood glucose level relative to control group. The procedure: Commercially available mice (C57BL/6J mice; male; 8 to 12 weeks old when used; distributed by Charles River Laboratories Japan, Inc.) were used.
After acclimatization with freely feeding (FR-2, Funabashi Farm Co., Ltd.) for one week or more, the mice were fasted overnight and then used for the test. A 0.5% methylcellulose (Wako Pure Chemical Industries, Ltd.) solution (0.5% MC) containing a test compound at a concentration of 1 mg/ml and a mixed solution (PG:Tween) of propylene glycol (80 v/v %, Nacalai Tesque, Inc.) and Tween 80 (20 v/v %, Nacalai Tesque, Inc.) containing a test compound at a concentration of 2 mg/ml were prepared for administration to the mice. The prepared solution was administered by oral gavage to four or five mice in each group at a dose of 10 mg/kg as the test compound. For a control group, a 0.5% methylcellulose solution (dose: 10 ml/kg) or a mixed solution of propylene glycol and Tween 80 (dose: 5 ml/kg) was orally administered to mice. An oral glucose tolerance test was carried out by administering a glucose solution (Otsuka Glucose Solution 50%; Otsuka Pharmaceutical Factory, Inc.) orally at a dose of 3 g/kg to the mice 30 minutes after administration of the test compound.
Blood was collected from the tail vein of each mouse immediately before administration of the test compound (T0), […] after administration of the test compound (T1), and 30 minutes (T2) and 90 minutes (T3) after oral glucose loading. The blood glucose level was measured using a blood glucose level measuring apparatus (ACCU-CHEK Aviva; Roche Diagnostics, K.K.). The blood glucose level T1 was analyzed as a value obtained 30 minutes after administration of the compound and immediately before glucose loading. According to the following formula, the area under the curve of blood glucose level was calculated, and thereafter, the blood glucose lowering rate (%) was calculated as a value relative to the control group. The area under the curve of blood glucose level=[(blood glucose level T0+blood glucose level T1)×30]÷2+[(blood glucose level T1+blood glucose level T2)×30]÷2+[(blood glucose level T2+blood glucose level T3)×60]÷2 Blood glucose lowering rate(%)=[1−(the area under the curve of blood glucose level for the test compound group/the area under the curve of blood glucose level for the control group)]×100
On to `C#Cc1ccc(-c2ccc(OC)c(C3C4=C(CC(C)(C)CC4=O)OC4=C3C(=O)CC(C)(C)C4)c2C)nc1C(=O)O` [Example 12, 3-Ethynyl-6-[4-methoxy-2-methyl-3-(3,3,6,6-tetramethyl-1,8-dioxo-2,3,4,5,6,7,8,9-octahydro-1H-xanthen-9-yl)phenyl]pyridine-2-carboxylic acid], for which the “Blood glucose lowering rate (%)” value stood at 31%. As to `CCc1ccc(-c2ccc(OC)c(C3C4=C(CC(C)(C)CC4=O)OC4=C3C(=O)CC(C)(C)C4)c2C)nc1C(=O)O` [Example 13, 3-Ethyl-6-[4-methoxy-2-methyl-3-(3,3,6,6-tetramethyl-1,8-dioxo-2,3,4,5,6,7,8,9-octahydro-1H-xanthen-9-yl)phenyl]pyridine-2-carboxylic acid], the “Blood glucose lowering rate (%)” value came to 61%.

As to `COc1ccc(-c2cccc(C(=O)NS(C)(=O)=O)n2)c(C)c1C1C2=C(CC(C)(C)CC2=O)OC2=C1C(=O)CC(C)(C)C2.[K]` [Example 14, 6-[4-Methoxy-2-methyl-3-(3,3,6,6-tetramethyl-1,8-dioxo-2,3,4,5,6,7,8,9-octahydro-1H-xanthen-9-yl)phenyl]-N-(methylsulfonyl)pyridine-2-carboxamide potassium salt], the “Blood glucose lowering rate (%)” value amounted to 46%. `COc1ccc(-c2ccc(C)c(C(=O)NS(C)(=O)=O)n2)c(C)c1C1C2=C(CC(C)(C)CC2=O)OC2=C1C(=O)CC(C)(C)C2` [Example 16, 6-[4-Methoxy-2-methyl-3-(3,3,6,6-tetramethyl-1,8-dioxo-2,3,4,5,6,7,8,9-octahydro-1H-xanthen-9-yl)phenyl]-3-methyl-N-(methylsulfonyl)pyridine-2-carboxamide]: the “Blood glucose lowering rate (%)” value was 45%. As for `CCc1ccc(-c2ccc(OC)c(C3C4=C(CC(C)(C)CC4=O)OC4=C3C(=O)CC(C)(C)C4)c2C)nc1C(=O)NS(C)(=O)=O` [Example 17, 3-Ethyl-6-[4-methoxy-2-methyl-3-(3,3,6,6-tetramethyl-1,8-dioxo-2,3,4,5,6,7,8,9-octahydro-1H-xanthen-9-yl)phenyl]-N-(methylsulfonyl)pyridine-2-carboxamide], the “Blood glucose lowering rate (%)” value came to 43%. Same read-out and setting: the same measure for `CC(C)(C)N.COc1ccc(-c2cccc(C(=O)NS(C)(=O)=O)n2)c(C)c1C1C2=C(CC(C)(C)CC2=O)OC2=C1C(=O)CC(C)(C)C2` [Example 18, 6-[4-methoxy-2-methyl-3-(3,3,6,6-tetramethyl-1,8-dioxo-2,3,4,5,6,7,8,9-octahydro-1H-xanthen-9-yl)phenyl]-N-(methylsulfonyl)pyridine-2-carboxamide 2-methylpropan-2-amine salt]: 31%; for `COc1ccc(-c2ccc(C)c(C(=O)NS(C)(=O)=O)n2)c(C)c1C1C2=C(CC(C)(C)CC2=O)OC2=C1C(=O)CC(C)(C)C2.[Na]` [Example 19, 6-[4-Methoxy-2-methyl-3-(3,3,6,6-tetramethyl-1,8-dioxo-2,3,4,5,6,7,8,9-octahydro-1H-xanthen-9-yl)phenyl]-3-methyl-N-(methylsulfonyl)pyridine-2-carboxamide sodium salt]: 40%; for `COc1ccc(-c2cccc(C(=O)NS(C)(=O)=O)n2)c(C)c1C1C2=C(CC(C)(C)CC2=O)OC2=C1C(=O)CC(C)(C)C2.COc1ccc(-c2cccc(C(=O)NS(C)(=O)=O)n2)c(C)c1C1C2=C(CC(C)(C)CC2=O)OC2=C1C(=O)CC(C)(C)C2.[Ca]` [Example 20, 6-[4-Methoxy-2-methyl-3-(3,3,6,6-tetramethyl-1,8-dioxo-2,3,4,5,6,7,8,9-octahydro-1H-xanthen-9-yl)phenyl]-N-(methylsulfonyl)pyridine-2-carboxamide hemi-calcium salt]: 41%.

Consider `COc1ccc(-c2ccc(C)c(C(=O)NS(C)(=O)=O)n2)c(C)c1C1C2=C(CC(C)(C)CC2=O)OC2=C1C(=O)CC(C)(C)C2.COc1ccc(-c2ccc(C)c(C(=O)NS(C)(=O)=O)n2)c(C)c1C1C2=C(CC(C)(C)CC2=O)OC2=C1C(=O)CC(C)(C)C2.[Ca]` [Example 21, 6-[4-Methoxy-2-methyl-3-(3,3,6,6-tetramethyl-1,8-dioxo-2,3,4,5,6,7,8,9-octahydro-1H-xanthen-9-yl)phenyl]-3-methyl-N-(methylsulfonyl)pyridine-2-carboxamide hemi-calcium salt], for which the “Blood glucose lowering rate (%)” value stood at 54%.

Still in this test, the particulars now being: male C57BL/6J mice, fasted overnight; oral gavage 10 mg/kg; solvent PG:Tween; glucose 3 g/kg orally 30 minutes after compound; area under the curve of blood glucose level relative to control group.
With `COc1ccc(-c2cccc(C(=O)O)n2)cc1C1C2=C(CC(C)(C)CC2=O)OC2=C1C(=O)CC(C)(C)C2` [Example 1, 6-[4-Methoxy-3-(3,3,6,6-tetramethyl-1,8-dioxo-2,3,4,5,6,7,8,9-octahydro-1H-xanthen-9-yl)phenyl]pyridine-2-carboxylic acid], the “Blood glucose lowering rate (%)” value was determined as 39%. On to `COc1ccc(-c2cccc(C(=O)O)n2)c(C)c1C1C2=C(CC(C)(C)CC2=O)OC2=C1C(=O)CC(C)(C)C2` [Example 4, 6-[4-Methoxy-2-methyl-3-(3,3,6,6-tetramethyl-1,8-dioxo-2,3,4,5,6,7,8,9-octahydro-1H-xanthen-9-yl)phenyl]pyridine-2-carboxylic acid], for which the “Blood glucose lowering rate (%)” value is listed as 60%. In the case of `COc1ccc(-c2cccc(C(=O)NS(C)(=O)=O)n2)cc1C1C2=C(CC(C)(C)CC2=O)OC2=C1C(=O)CC(C)(C)C2` [Example 5, 6-[4-Methoxy-3-(3,3,6,6-tetramethyl-1,8-dioxo-2,3,4,5,6,7,8,9-octahydro-1H-xanthen-9-yl)phenyl]-N-(methylsulfonyl)pyridine-2-carboxamide], the “Blood glucose lowering rate (%)” value is given as 43%. Still for that read-out and setting: the same measure for `COc1ccc(-c2cccc(-c3noc(=O)[nH]3)n2)cc1C1C2=C(CC(C)(C)CC2=O)OC2=C1C(=O)CC(C)(C)C2` [Example 8, 9-{2-Methoxy-5-[6-(5-oxo-4,5-dihydro-1,2,4-oxadiazol-3-yl)pyridin-2-yl]phenyl}-3,3,6,6-tetramethyl-3,4,5,6,7,9-hexahydro-1H-xanthene-1,8(2H)-dione]: 38%; for `COc1ccc(-c2cccc(C(=O)NS(C)(=O)=O)n2)c(C)c1C1C2=C(CC(C)(C)CC2=O)OC2=C1C(=O)CC(C)(C)C2` [Example 9, 6-[4-Methoxy-2-methyl-3-(3,3,6,6-tetramethyl-1,8-dioxo-2,3,4,5,6,7,8,9-octahydro-1H-xanthen-9-yl)phenyl]-N-(methylsulfonyl)pyridine-2-carboxamide]: 42%. On the same count and under the same terms, the value for `COc1ccc(-c2ccc(C)c(C(=O)O)n2)c(C)c1C1C2=C(CC(C)(C)CC2=O)OC2=C1C(=O)CC(C)(C)C2` [Example 10, 6-[4-Methoxy-2-methyl-3-(3,3,6,6-tetramethyl-1,8-dioxo-2,3,4,5,6,7,8,9-octahydro-1H-xanthen-9-yl)phenyl]-3-methylpyridine-2-carboxylic acid] was 55%; that for `COc1ccc(-c2ccc(O)c(C(=O)O)n2)c(C)c1C1C2=C(CC(C)(C)CC2=O)OC2=C1C(=O)CC(C)(C)C2` [Example 11, 3-Hydroxy-6-[4-methoxy-2-methyl-3-(3,3,6,6-tetramethyl-1,8-dioxo-2,3,4,5,6,7,8,9-octahydro-1H-xanthen-9-yl)phenyl]pyridine-2-carboxylic acid] was 42%; that for `COc1ccc(-c2ccc(OC)c(C3C4=C(CC(C)(C)CC4=O)OC4=C3C(=O)CC(C)(C)C4)c2C)nc1C(=O)O` [Example 23, 3-Methoxy-6-[4-methoxy-2-methyl-3-(3,3,6,6-tetramethyl-1,8-dioxo-2,3,4,5,6,7,8,9-octahydro-1H-xanthen-9-yl)phenyl]pyridine-2-carboxylic acid] was 46%.
